Key:
[1] = human patients, 160 mg daily (80 mg twice daily); cited from earlier work
[2] = Pharmacokinetics and absolute bioavailability after single oral or intravenous administration (Example 1)
Experimental: Four clinically healthy male and female domestic short hair cats (HsdCpb: CADS) with a body weight range of 2.6-4.2 kg were used in this study. The animals were randomly allocated to 2 groups, 2 animals per group.
Blood samples were drawn at 0 h (i.e. prior to treatment), 5 (after i. v. injection only), 15, 30 and 60 min as well as 2, 4, 8, 24, 72 and 96 h after each treatment. Clinical observations were also conducted at these time points. Plasma samples were sent to the analytical laboratory and analysed there using a validated method. The plasma levels measured in each animal were subjected to various pharmacokinetic calculations.

[3] = test system: cats with systemic hypertension; test: U.S. study of safety and effectiveness in cats with systemic hypertension (Example 4); format: in vivo
From the text: Of the remaining 288 cats used for the safety summary, 192 received IVP and 96 received ICP from a total of 33 sites within the United States (US) and Canada. […] Overall, both treatment groups were evenly distributed with regard to demographics and baseline characteristics including age, body weight, mSBP, retinal/fundic changes, and laboratory values. The median age of cats enrolled in this study was 14.2 years. Upon enrollment into the study, cats were orally administered telmisartan by their owners, where the owners were given the option of dosing the treatments around or on the food or via syringe. A dosing syringe was provided with demarcations in 0.1 mL increments as well as a dose and volume to be given, rounded to the nearest 0.1 mL (where the calculation was based on kg of body weight for each cat at Visit 1, and the dose was recalculated at each subsequent visit using the current body weight). […] Following Visit 2 (approximately Day 14), the dose was decreased to the 2 mg/kg once daily (SID) maintenance dose. The reduction and maintenance dosage regimen for the cats in the study is set forth in Table 6: The maintenance dose for a cat in the study could be further down-titrated if the mSBP of the cat remained below 120 mmHg from Visit 2 (at about day 14) and onward. […] At Visit 2 and at Unscheduled Visits, blood and urine samples were collected at the discretion of the Investigator. Changes in all parameters were summarized by treatment group as well as by subpopulation, if appropriate. The primary variable for statistical analysis was mSBP reduction from baseline observed at Visit 2. […] Telmisartan was successful in fulfilling both primary criteria for efficacy in cats as described below.

[4] = cats, single i.v. 1 mg/kg, mean, 1 mg/kg
[5] = cats, single oral 1 mg/kg, mean, 1 mg/kg

SMILES: CCCc1nc2c(C)cc(-c3nc4ccccc4n3C)cc2n1Cc1ccc(-c2ccccc2C(=O)O)cc1 [telmisartan, 4′-[2-n-propyl-4-methyl-6-(1-methylbenzimidazol-2-yl)-benzimidazol-1-ylmethyl]-biphenyl-2-carboxylic acid]
- plasma level (Cmax±SD) [1]: about 2800±2400 ng/ml
- time until which mean plasma concentrations increased ([2]; after oral administration): 15 to 30 min
- plasma concentrations at 24 h ([2]; both routes, orally and intravenously): No quantifiable plasma concentrations
- clearance ([2]; both, domestic short hair (HsdCpb: CADS), plasma, iv, 1 mg/kg): 45.5 mL/min/kg
- V ([2]; cats, single i.v. 1 mg/kg, mean): 8.856 L/kg
- AUC 0 → ∞ [2, 4]: 384.751 ng·h/mL
- t½ [2, 4]: 2.252 h
- V/f ([2]; cats, single oral 1 mg/kg, mean): 20.453 L/kg
- AUC 0 → ∞ [2, 5]: 150.426 ng·h/mL
- t max [2, 5]: 0.438 h
- t½ [2, 5]: 2.169 h
- clinical signs ([2]; entire course of the study): No specific clinical signs
- tolerability ([2]; in vivo, 1 mg/kg): well tolerated
- LSM mSBP change from baseline to Visit 2 ([3]; 1.5 mg/kg BID oral, about Day 14, N 141): −23.3 ΔmmHg
- arithmetic mean decrease of mSBP, baseline minus Visit 3 ([3]; Visit 3 (about Day 28), 1.5 mg/kg BID then 2 mg/kg SID): 23.9 mmHg
- mean decrease of mSBP ([3]; baseline to Visit 2 (about Day 14)): 23.3 mmHg
- Serious Adverse Events (SAEs) attributable ([3]; hypertensive cats, 28 days): very few
- percentage of cats with retinal lesions scoring "better" ([3]; retinal photographs vs baseline): 11.5%
